Experiment in all cases: NCI tumour cell line growth inhibition, 48 h
In test [1] the test system is A549 NSCLC.
For test [2], the system named is LOX IMVI melanoma.
Test [3] has as its system MCF7 breast.
Test [4] concerns MDA-MB-435.
Test [5] concerns NCI-H522 lung.
Test [6] relates to NCI/ADR-RES ovarian.
In test [7] the test system is RXF 393 renal.
The subject of test [8] is SF-268 CNS.
The subject of test [9] is SF-539 CNS.
For test [10], the system named is SK-MEL-5 melanoma.
In test [11] the test system is SK-OV-3 ovarian.
Test [12] concerns SNB-75 CNS.
Test [13] has as its system T-47D breast.
Test [14] concerns TK-10 renal.
Test [15] relates to UACC-62 melanoma.

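Each compound was tested at five concentrations against cells in 96-well plates for 48 hours. TGI denotes the concentration required for complete inhibition of growth.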

On to `CCOc1ccc(C2c3[nH]c4ccccc4c3CCN2C(=O)c2cccs2)cc1` (stereo not given), for which the TGI in test [1], in [2], in [3], in test [4], in [5] and in test [6] was more than 100 µM throughout. For the same compound, the TGI in test [7], in test [8], in test [9], in test [10], in test [11] and in test [12] was more than 100 µM in each case. Also, the TGI in test [13], in [14] and in test [15] was more than 100 µM throughout.
As for `O=C(CNC(=O)OCc1ccccc1)NCCCCC(NC(=O)OCc1ccccc1)C(=O)O` (stereo not given), the TGI in test [1], in [2], in [3], in test [4], in test [5] and in [6] was more than 100 µM in each case. Further, the TGI in [7], in test [8], in test [9], in test [10], in [11] and in test [12] was more than 100 µM in each case. In addition, the TGI in test [13], in test [14] and in test [15] was more than 100 µM in each case.
For the compound `Cc1ccc2c(c1)C(C1Cc3c(C)cccc3C1=O)OC2=O` (stereo not given), the TGI in test [1], in [2], in [3], in test [4], in test [5] and in [6] was more than 100 µM in each case. In addition, the TGI in [7], in test [8], in [9], in [10], in [11] and in test [12] was more than 100 µM each time. Also, the TGI in test [13], in test [14] and in test [15] was more than 100 µM throughout.
Take `O=c1cc(-c2ccc(O)c(O)c2)oc2cc(OC3OC(CO)C(O)C(O)C3O)cc(O)c12` (stereo not given): the TGI in test [1], in [2], in test [3], in test [4], in [5] and in [6] was more than 100 µM throughout. For the same compound, the TGI in test [7], in test [8], in test [9], in test [10], in test [11] and in test [12] was more than 100 µM in each case. Besides, the TGI in test [13], in test [14] and in test [15] was more than 100 µM each time.
Regarding `N#Cc1cnn2c1n[n+]([O-])c1ccc(Cl)cc12`, the TGI in test [1] is more than 79.8 µM; in test [2], 8.51 µM; in test [3], more than 100 µM; in test [4], 26.4 µM; in [5], 3.81 µM; in test [6], more than 32.3 µM. Also, the TGI in test [7] was 42.4 µM; in test [8] it was more than 40.3 µM; in [9] it was 44.5 µM; in [10], 25 µM; in test [11], 23.8 µM; in test [12], 15.4 µM. Moreover, the TGI is 37.6 µM in test [13], more than 100 µM in [14] and 9.09 µM in test [15].
For the compound `O=C(/C=C/c1ccc(O)c(O)c1)NC(CO)C(=O)O` (stereo not given), the TGI in test [1] is more than 100 µM; in [2], more than 100 µM; in test [3] it was more than 100 µM; in [4] it was more than 100 µM; in test [5] it was more than 100 µM; in test [6], 64.6 µM. For the same compound, the TGI in test [7], in test [8], in test [9], in test [10], in [11] and in test [12] was more than 100 µM in each case. The TGI in [13], in test [14] and in test [15] was more than 100 µM throughout.
`N#C/C(=C\c1ccc(Cl)cc1)c1nc2ccccc2c(=O)[nH]1`: the TGI in [1], in test [2], in test [3], in test [4], in test [5] and in test [6] was more than 100 µM each time. For the same compound, the TGI in [7] is more than 100 µM; in test [8], more than 100 µM; in test [9], more than 100 µM; in test [10] it was more than 100 µM; in test [11] it was more than 100 µM; in [12], 61.7 µM. In addition, the TGI in test [13], in [14] and in test [15] was more than 100 µM throughout.
Consider `CCC(=O)N(c1ccccc1)C(C)CN1CCC(O)(c2ccccc2)CC1` (stereo not given), for which the TGI in test [1], in test [2], in [3], in test [4], in [5] and in test [6] was more than 100 µM in each case. Also, the TGI in test [7], in [8], in [9], in test [10], in [11] and in test [12] was more than 100 µM each time. For the same compound, the TGI in [13], in test [14] and in [15] was more than 100 µM in each case.
For `CC(C)=CCC/C(C)=C/Cc1cc(/C=C/c2cc(O)c(CC=C(C)C)c(O)c2)cc(O)c1O`, the TGI in [1] was 17.5 µM; in [2], 7 µM; in [3], 13.4 µM; in [4] it was 12.2 µM; in test [5] it was 0.38 µM; in test [6] it was 13.3 µM. Further, the TGI came out at 8.65 µM in test [7]; 12.3 µM in test [8]; 13.8 µM in [9]; 5.88 µM in test [10]; 21.5 µM in test [11]; 7.57 µM in test [12]. Moreover, the TGI in test [13] amounted to 4.54 µM; in [14] it was 14.2 µM; in [15] it was 9.88 µM.
Turning to `Cc1sc2ncnc(NCCc3ccccc3)c2c1C`, the TGI was 83 µM in test [1]; 22.4 µM in test [2]; 28.6 µM in [3]; 34.6 µM in test [4]; 25.1 µM in test [5]; more than 100 µM in test [6]. Also, the TGI in [7] came out at 34.1 µM; in test [8], 60.1 µM; in [9], 31.2 µM; in test [10], 12.2 µM; in [11] it was 73.4 µM; in [12], 53.5 µM. Further, the TGI in test [13] stood at 56.6 µM; in test [14], 46.5 µM; in [15], 24.6 µM.
`O=c1nc2n(CCO)c(-c3ccccc3)c(-c3ccccc3)nc-2c(=O)[nH]1`: the TGI in test [1], in test [2], in [3], in test [4], in test [5] and in [6] was more than 100 µM throughout. For the same compound, the TGI in [7], in test [8], in [9], in test [10], in test [11] and in test [12] was more than 100 µM each time. In addition, the TGI in test [13], in test [14] and in [15] was more than 100 µM each time.
Turning to `CCN(CC)c1ccc(/C=C/C2=NN(c3cccc(S(=O)(=O)O)c3)C3(C2)C(Cl)C(=O)N3c2nc3ccccc3s2)cc1` (stereo not given), the TGI is 28.7 µM in test [1]; 9.12 µM in test [2]; 21.1 µM in [3]; 17 µM in test [4]; 3.57 µM in [5]; more than 79.3 µM in [6]. Further, the TGI is 21.1 µM in test [7]; 41.5 µM in [8]; 10.6 µM in [9]; 20.9 µM in test [10]; 39.3 µM in [11]; 25.3 µM in test [12]. For the same compound, the TGI in test [13] was found to be 12.9 µM; in [14], 14.3 µM; in test [15], 20.6 µM.
In the case of `COc1ccc(NC=O)c(C(O)CCNC(C)=O)c1` (stereo not given), the TGI in test [1], in [2], in test [3], in test [4], in [5] and in [6] was more than 100 µM throughout. Also, the TGI in test [7], in test [8], in [9], in test [10], in test [11] and in [12] was more than 100 µM throughout. For the same compound, the TGI in test [13], in test [14] and in test [15] was more than 100 µM in each case.
With `Nc1ncc2c(n1)-c1ccccc1OC2NC1CC1` (stereo not given), the TGI in test [1], in [2], in [3], in test [4], in test [5] and in test [6] was more than 100 µM throughout. For the same compound, the TGI in [7], in [8], in test [9], in [10], in [11] and in [12] was more than 100 µM throughout. Further, the TGI in [13], in test [14] and in test [15] was more than 100 µM in each case.

Values taken from PubChem BioAssay (NCI).
